Patent US20230403873A1, “ORGANIC COMPOUND AND ORGANIC LIGHT-EMITTING DEVICE” (CANON KABUSHIKI KAISHA, priority 2022, published 2023)

Legend:
Type in all cases: physicochemical
[1] = Evaluation of thermal properties: weight-loss initiation temperature by thermogravimetry/differential thermal analyzer STA7200; conditions: under atmospheric pressure
Description: (§1) The weight-loss initiation temperatures of compounds (1), (5), (10) and compound A, serving as a compound of a comparative example, under atmospheric pressure were measured with a thermogravimetry/differential thermal analyzer STA7200 (available from Hitachi High-Tech Science Corporation). In addition, the sublimation temperature was defined as the temperature at which the rate of weight loss under vacuum (2 Pa) reached 5% and was measured with a thermogravimetry/differential thermal analyzer TA7000 (available from Hitachi High-Tech Science Corporation).

[2] = Evaluation of thermal properties: sublimation temperature under vacuum by thermogravimetry/differential thermal analyzer TA7000; conditions: temperature at which the rate of weight loss under vacuum (2 Pa) reached 5%
Description: as §1

[3] = Evaluation of solubility in toluene; conditions: organic solvent or mixture, thermodynamic from solid; 50 mg in 1 mL of toluene, stirred at room temperature
Description: First, 50 mg of compound (25), 50 mg of compound (29), which were synthesized in the above examples, and 50 mg of compound A as a comparative example were placed in respective sample bottles each containing 1 mL of toluene. The mixtures were stirred at room temperature to determine whether the compounds were dissolved.

CC(C)(C)c1cc2ccc3cc4c(c5ccc(c1)c2c35)-c1ccc(-c2cccc(-c3ccc5c(c3)C(C)(C)c3cc6ccc7cc(C(C)(C)C)cc8ccc(c3-5)c6c78)n2)cc1C4(C)C [(10)]
Weight-loss initiation temperature [1]: 260 °C | Sublimation temperature [2]: 205 °C

CC(C)(C)c1cc2ccc3cc4c(c5ccc(c1)c2c35)-c1ccc(-c2cc(-c3ccc5c(c3)C(C)(C)c3cc6ccc7cc(C(C)(C)C)cc8ccc(c3-5)c6c78)ncn2)cc1C4(C)C [Compound (1)]
Weight-loss initiation temperature [1]: 450 °C | Sublimation temperature [2]: 385 °C

CC(C)(C)c1cc2ccc3cc4c(c5ccc(c1)c2c35)-c1ccc(-c2ncnc(-c3ccc5c(c3)C(C)(C)c3cc6ccc7cc(C(C)(C)C)cc8ccc(c3-5)c6c78)n2)cc1C4(C)C [Compound (5)]
Weight-loss initiation temperature [1]: 385 °C | Sublimation temperature [2]: 315 °C

CC(C)(C)c1cc2ccc3cc4c(c5ccc(c1)c2c35)-c1ccc(-c2ccc3c(c2)C2(c5ccccc5-c5ccccc52)c2cc(-c5ccc6c(c5)C(C)(C)c5cc7ccc8cc(C(C)(C)C)cc9ccc(c5-6)c7c89)ccc2-3)cc1C4(C)C [Compound (25)]
solubility [3]: > 50 mg/mL

CC(C)(C)c1cc2ccc3cc4c(c5ccc(c1)c2c35)-c1ccc(-c2ccc3c(c2)C2(c5ccccc5-3)c3ccccc3-c3ccc(-c5ccc6c(c5)C(C)(C)c5cc7ccc8cc(C(C)(C)C)cc9ccc(c5-6)c7c89)cc32)cc1C4(C)C [Compound (29)]
solubility [3]: > 50 mg/mL

CC(C)(C)c1cc2ccc3cc4c(c5ccc(c1)c2c35)-c1ccc(-c2ccc(-c3ccc(-c5ccc6c(c5)C(C)(C)c5cc7ccc8cc(C(C)(C)C)cc9ccc(c5-6)c7c89)cc3)cc2)cc1C4(C)C [Compound A]
Weight-loss initiation temperature [1]: 550 °C | Sublimation temperature [2]: 470 °C | solubility [3]: < 50 mg/mL
